Test results reported in ChEMBL document CHEMBL1151273, “Cytotoxic furostanol saponins and a megastigmane glucoside from tribulus parvispinus” (J Nat Prod, 2005).
Calls of active or inactive are those of the source. The rule behind the calls is not given here.

How the values were obtained:
HepG2 = test: Cytotoxicity against human HepG2 cells after 48 hrs by acid phosphatase method; type: functional, cell-based; details: HepG2, 48 h
MCF7 = test: Cytotoxicity against human MCF7 cells after 48 hrs by acid phosphatase method; type: functional, cell-based; details: MCF7, 48 h
U-937 [1] = test: Cytotoxicity against human U937 cells after 48 hrs by WST1 test; type: functional, cell-based; details: U-937, 48 h
U-937 [2] = test: Induction of apoptosis in human U937 cells assessed as total LDH activity at IC50 by spectrophotometric method; type: functional
U-937 [3] = test: Induction of apoptosis in human U937 cells assessed as hypodiploid region at IC50 measured by propidium iodide incorporation by flow cytometry; type: functional
U-937 [4] = test: Cytotoxicity against human U937 cells assessed as reduction of proliferation at 0.1 uM after 24 hrs; type: functional, cell-based
U-937 [5] = test: Cytotoxicity against human U937 cells assessed as reduction of proliferation at 0.1 uM after 48 hrs; type: functional, cell-based
U-937 [6] = test: Cytotoxicity against human U937 cells assessed as reduction of proliferation at 0.5 uM after 24 hrs; type: functional, cell-based

`CO[C@]1(CC[C@@H](C)CO[C@@H]2O[C@H](CO)[C@@H](O)[C@H](O)[C@H]2O)O[C@H]2C[C@H]3[C@@H]4CC[C@H]5C[C@@H](O[C@@H]6O[C@H](CO)[C@H](O[C@@H]7O[C@H](CO)[C@@H](O)[C@H](O[C@@H]8OC[C@@H](O)[C@H](O)[C@H]8O)[C@H]7O[C@@H]7O[C@H](CO)[C@H](O)[C@H](O)[C@H]7O)[C@H](O)[C@H]6O)[C@H](O)C[C@]5(C)[C@H]4CC[C@]3(C)[C@H]2[C@@H]1C` [22-O-METHYLPARVISPINOSIDE A] showed an IC50 (HepG2) of 30 µM, an IC50 (MCF7) of 50 µM and an IC50 (U-937 [1]) of 1 µM. For the same compound, the Activity (U-937 [2]) was 38% and the Activity (U-937 [3]) was 9%.
`CO[C@]1(CC[C@@H](C)CO[C@@H]2O[C@H](CO)[C@@H](O)[C@H](O)[C@H]2O)O[C@H]2C[C@H]3[C@@H]4CC[C@H]5C[C@@H](O[C@@H]6O[C@H](CO)[C@H](O[C@@H]7O[C@H](CO)[C@@H](O)[C@H](O[C@@H]8OC[C@@H](O)[C@H](O)[C@H]8O)[C@H]7O[C@@H]7O[C@H](CO)[C@H](O)[C@H](O)[C@H]7O)[C@H](O)[C@H]6O)CC[C@]5(C)[C@H]4CC[C@]3(C)[C@H]2[C@@H]1C` [22-O-METHYLPARVISPINOSIDE B] showed an IC50 (HepG2) of 30 µM, an IC50 (MCF7) of 40 µM and an IC50 (U-937 [1]) of 2 µM. It also gave an Activity (U-937 [2]) of 50% and an Activity (U-937 [3]) of 3%.
`C[C@@H]1CC[C@@]2(OC1)O[C@H]1C[C@H]3[C@@H]4CC[C@H]5C[C@@H](O[C@@H]6O[C@H](CO)[C@H](O[C@@H]7O[C@H](CO)[C@@H](O)[C@H](O[C@@H]8OC[C@@H](O)[C@H](O)[C@H]8O)[C@H]7O[C@@H]7O[C@H](CO)[C@H](O)[C@H](O)[C@H]7O)[C@H](O)[C@H]6O)CC[C@]5(C)[C@H]4CC[C@]3(C)[C@H]1[C@@H]2C` [GITONIN] was tested, and the IC50 (HepG2) was 3 µM, the IC50 (MCF7) was 3 µM and the IC50 (U-937 [1]) was 0.1 µM. The Activity (U-937 [4]) was “Active”, the Activity (U-937 [5]) was “Active” and the Activity (U-937 [2]) was 25%. It also gave an Activity (U-937 [3]) of 20%.
With `C[C@H](CC[C@@]1(O)O[C@H]2C[C@H]3[C@@H]4CC[C@H]5C[C@@H](O[C@@H]6O[C@H](CO)[C@H](O[C@@H]7O[C@H](CO)[C@@H](O)[C@H](O[C@@H]8OC[C@@H](O)[C@H](O)[C@H]8O)[C@H]7O[C@@H]7O[C@H](CO)[C@H](O)[C@H](O)[C@H]7O)[C@H](O)[C@H]6O)[C@H](O)C[C@]5(C)[C@H]4CC[C@]3(C)[C@H]2[C@@H]1C)CO[C@@H]1O[C@H](CO)[C@@H](O)[C@H](O)[C@H]1O` [PARVISPINOSIDE A] the IC50 (HepG2) was over 100 µM, the IC50 (MCF7) was over 100 µM and the IC50 (U-937 [1]) was 30 µM. For the same compound, the Activity (U-937 [2]) was 28% and the Activity (U-937 [3]) was 32%.
For `C[C@H](CC[C@@]1(O)O[C@H]2C[C@H]3[C@@H]4CC[C@H]5C[C@@H](O[C@@H]6O[C@H](CO)[C@H](O[C@@H]7O[C@H](CO)[C@@H](O)[C@H](O[C@@H]8OC[C@@H](O)[C@H](O)[C@H]8O)[C@H]7O[C@@H]7O[C@H](CO)[C@H](O)[C@H](O)[C@H]7O)[C@H](O)[C@H]6O)CC[C@]5(C)[C@H]4CC[C@]3(C)[C@H]2[C@@H]1C)CO[C@@H]1O[C@H](CO)[C@@H](O)[C@H](O)[C@H]1O` [PARVISPINOSIDE B], the IC50 (HepG2) was over 100 µM, the IC50 (MCF7) was 94 µM and the IC50 (U-937 [1]) was 0.5 µM. The Activity (U-937 [6]) was “Active”, the Activity (U-937 [5]) was “Active” and the Activity (U-937 [2]) was 27%. It also gave an Activity (U-937 [3]) of 26%.
`CC1=CC(=O)CC(C)(C)[C@@]1(O)/C=C/C(O)CO[C@@H]1O[C@H](CO)[C@@H](O)[C@H](O)[C@H]1O` (stereo not given in full) [PARVISPINOSIDE C] showed an IC50 (HepG2) of over 100 µM, an IC50 (MCF7) of 80 µM and an IC50 (U-937 [1]) of 15 µM.
`Oc1ccc(/C=C/c2cc(O)cc(O)c2)cc1` [RESVERATROL] showed an IC50 (HepG2) of 50 µM, an IC50 (MCF7) of 100 µM and an IC50 (U-937 [1]) of 17 µM.
